Test system: SEM cells
Test: cell viability relative to DMSO control; higher = less cytotoxic
Details: 48 h
Summary of the method: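 NOMO1 or SEM cells were plated at 500 cells/well and P12-Ichikawa cells at 1000 cells/well in 1536-well plates (5 μl), after each leukemia line had been adapted for at least four passages in each medium. Pin dosing delivered library compounds in DMSO at 11 threefold concentrations, 47 μM to 0.79 nM. CellTiter-Glo One luminescence was read after 48 h at 37°C. Viability is reported as a per-plate percentage of DMSO wells, with cell-free wells as background.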

[1] = HPLM + 10% dialyzed FBS, 0.000781 µM
[2] = HPLM + 10% dialyzed FBS, 0.00234 µM
[3] = HPLM + 10% dialyzed FBS, 0.00702 µM
[4] = HPLM + 10% dialyzed FBS, 0.0211 µM
[5] = HPLM + 10% dialyzed FBS, 0.0632 µM
[6] = HPLM + 10% dialyzed FBS, 0.19 µM
[7] = HPLM + 10% dialyzed FBS, 0.569 µM
[8] = HPLM + 10% dialyzed FBS, 1.71 µM
[9] = HPLM + 10% dialyzed FBS, 5.12 µM
[10] = HPLM + 10% dialyzed FBS, 15.4 µM
[11] = HPLM + 10% dialyzed FBS, 46.1 µM
[12] = RPMI 5 mM glucose + 10% dialyzed FBS, 0.000781 µM
[13] = RPMI 5 mM glucose + 10% dialyzed FBS, 0.00234 µM
[14] = RPMI 5 mM glucose + 10% dialyzed FBS, 0.00702 µM
[15] = RPMI 5 mM glucose + 10% dialyzed FBS, 0.0211 µM
[16] = RPMI 5 mM glucose + 10% dialyzed FBS, 0.0632 µM
[17] = RPMI 5 mM glucose + 10% dialyzed FBS, 0.19 µM
[18] = RPMI 5 mM glucose + 10% dialyzed FBS, 0.569 µM
[19] = RPMI 5 mM glucose + 10% dialyzed FBS, 1.71 µM
[20] = RPMI 5 mM glucose + 10% dialyzed FBS, 5.12 µM
[21] = RPMI 5 mM glucose + 10% dialyzed FBS, 15.4 µM
[22] = RPMI 5 mM glucose + 10% dialyzed FBS, 46.1 µM
[23] = RPMI 5 mM glucose + 10% FBS, 0.000781 µM
[24] = RPMI 5 mM glucose + 10% FBS, 0.00234 µM
[25] = RPMI 5 mM glucose + 10% FBS, 0.00702 µM
[26] = RPMI 5 mM glucose + 10% FBS, 0.0211 µM
[27] = RPMI 5 mM glucose + 10% FBS, 0.0632 µM
[28] = RPMI 5 mM glucose + 10% FBS, 0.19 µM
[29] = RPMI 5 mM glucose + 10% FBS, 0.569 µM
[30] = RPMI 5 mM glucose + 10% FBS, 1.71 µM
[31] = RPMI 5 mM glucose + 10% FBS, 5.12 µM
[32] = RPMI 5 mM glucose + 10% FBS, 15.4 µM
[33] = RPMI 5 mM glucose + 10% FBS, 46.1 µM

Row | SMILES | cell viability [1] [%] | cell viability [2] [%] | cell viability [3] [%] | cell viability [4] [%] | cell viability [5] [%] | cell viability [6] [%] | cell viability [7] [%] | cell viability [8] [%] | cell viability [9] [%] | cell viability [10] [%] | cell viability [11] [%] | cell viability [12] [%] | cell viability [13] [%] | cell viability [14] [%] | cell viability [15] [%] | cell viability [16] [%] | cell viability [17] [%] | cell viability [18] [%] | cell viability [19] [%] | cell viability [20] [%] | cell viability [21] [%] | cell viability [22] [%] | cell viability [23] [%] | cell viability [24] [%] | cell viability [25] [%] | cell viability [26] [%] | cell viability [27] [%] | cell viability [28] [%] | cell viability [29] [%] | cell viability [30] [%] | cell viability [31] [%] | cell viability [32] [%] | cell viability [33] [%]
1 | CCCCN(CCCC)C(=O)CN1C[C@H](c2ccc3c(c2)OCO3)[C@@H](C(=O)O)[C@@H]1c1ccc(OC)cc1 | 98.6 | 107 | 114 | 98.2 | 103 | 105 | 106 | 92.5 | 28.4 | 55.3 | 63.4 | 112 | 112 | 125 | 84.8 | 116 | 127 | 109 | 106 | 74.8 | 75.8 | 67 |  |  |  |  |  |  |  |  |  |  | 
2 | C[S+]([O-])c1ccc(-c2nc(-c3ccc(F)cc3)c(-c3ccncc3)[nH]2)cc1 (centres undefined) | 83.2 | 84.2 | 91.8 | 84 | 102 | 81.5 | 86.9 | 62 | 40.9 | 4.09 | 2.22 | 92.6 | 99.7 | 89.8 | 97.8 | 98.1 | 77 | 79.2 | 59.4 | 26.1 | 3.71 | 2.23 | 103 | 106 | 102 | 105 | 107 | 79.3 | 75.1 | 41 | 21.9 | 3.29 | 2.41
3 | COc1cc(OC)c(NC(=O)Nc2cc(C)on2)cc1Cl | 95.9 | 94.2 | 104 | 98.4 | 94.6 | 99.8 | 97.3 | 112 | 100 | 97.5 | 71.3 | 84.8 | 100 | 90.3 | 94.5 | 105 | 108 | 96.1 | 89.7 | 101 | 91.5 | 71.1 | 74.3 | 79.6 | 90.9 | 89.6 | 82 | 86.5 | 91.3 | 92 | 76.6 | 80.6 | 63.8
4 | O=C1CCc2ccc(OCCCCN3CCN(c4cccc(Cl)c4Cl)CC3)cc2N1 | 111 | 121 | 111 | 41 | 113 | 112 | 101 | 89.2 | 129 | 119 | 113 | 120 | 108 | 113 | 34.9 | 105 | 112 | 120 | 106 | 105 | 117 | 74.7 | 104 | 111 | 105 | 24.5 | 96.4 | 101 | 98.5 | 23.1 | 107 | 95.7 | 73.1
5 | Cc1cc(Cl)ccc1OCCCC(=O)NO | 105 | 96.7 | 103 | 117 | 130 | 120 | 118 | 101 | 89 | 34 | 12.8 | 98.8 | 96.2 | 93.5 | 99.4 | 97.1 | 106 | 105 | 89.5 | 76.5 | 26.7 | 10.2 | 107 | 101 | 102 | 122 | 112 | 117 | 115 | 124 | 91.7 | 43.9 | 10.9
6 | Cc1ccc(C(=O)c2cc(O)c(O)c([N+](=O)[O-])c2)cc1 | 78.2 | 96.4 | 98.5 | 81.4 | 97.7 | 91.1 | 115 | 110 | 108 | 111 | 95.6 | 83.1 | 82.8 | 88.7 | 96.1 | 93.4 | 94 | 80.8 | 89.4 | 102 | 88.8 | 101 | 92.6 | 88 | 103 | 100 | 96.7 | 101 | 101 | 99.7 | 110 | 87.6 | 95.9
7 | CN(C)CC/C=C1/c2ccccc2COc2ccc(CC(=O)O)cc21 | 85.4 | 81.8 | 108 | 120 | 113 | 130 | 132 | 124 | 101 | 141 | 126 |  |  |  |  |  |  |  |  |  |  |  | 123 | 106 | 124 | 127 | 136 | 132 | 143 | 144 | 121 | 148 | 142
8 | COC1=CC2=C(C=C1OC)[C@H]3[C@@H](CO2)OC4=C(C=CC5=C4\C=C/C(C)(C)O5)C3=O | 82.5 | 97.1 | 101 | 96.8 | 85.3 | 89 | 92.7 | 91 | 78.9 | 85.2 | 3.39 | 87.7 | 85.1 | 92.4 | 88.9 | 64.6 | 79.2 | 75.4 | 63 | 44.8 | 46.2 | 3.18 | 95.1 | 99.1 | 107 | 95.6 | 78.5 | 112 | 85.4 | 71 | 24.4 | 31 | 3.59
9 | CC[C@@]1(O)C[C@H](O[C@H]2C[C@H](N(C)C)[C@H](O[C@H]3C[C@H](O)[C@H](O[C@H]4CCC(=O)[C@H](C)O4)[C@H](C)O3)[C@H](C)O2)c2c(cc3c(c2O)C(=O)c2c(O)cccc2C3=O)[C@H]1C(=O)OC | 79.8 | 68.5 | 86.2 | 77.9 | 48.4 | 50 | 26.5 | 11.4 | 13.5 | 24 | 15.8 | 85.5 | 48.6 | 83.7 | 66.7 | 46.2 | 51.3 | 26.2 | 11.8 | 12.2 | 15.4 | 12.9 | 81 | 65.9 | 85.2 | 72.5 | 46.2 | 54.4 | 32.7 | 18.1 | 23.2 | 20.2 | 19.5
10 | C[C@@H]1CC[C@@]2(OC1)OC1CC3C4CC=C5CC(O)CCC5(C)C4CCC3(C)C1[C@@H]2C (some centres undefined) | 88.6 | 48 | 101 | 100 | 100 | 106 | 107 | 95.1 | 102 | 91.4 | 73.6 | 86.3 | 44.1 | 93.9 | 107 | 88.6 | 104 | 92.4 | 84.1 | 101 | 85.5 | 61.5 | 85.9 | 40.2 | 97.9 | 89.7 | 93.3 | 93.2 | 93.6 | 90.4 | 96.1 | 76.3 | 26.6
11 | C[C@@H]1C[C@H]2[C@@H]3CC\C4=C\C(=O)\C=C/[C@]4(C)[C@@]3(Cl)[C@@H](O)C[C@]2(C)[C@@]1(OC(=O)C5=CC=CO5)C(=O)CCl | 28.4 | 82.2 | 45.9 | 53.8 | 61 | 59.3 | 53.2 | 47.7 | 36.9 | 45.6 | 52 | 30.9 | 76.5 | 39 | 52.5 | 64.1 | 47 | 46.8 | 44.7 | 28.8 | 43 | 36.5 | 32.3 | 81.8 | 35.8 | 62.1 | 61 | 50.4 | 50.4 | 45.1 | 36.9 | 37.3 | 50.8
12 | NC\1=N\C(=O)N(\C=C1)[C@H]\2[C@H](O)[C@H](O)C(=C2F)\CO | 77.6 | 90.2 | 85 | 103 | 92.2 | 97.6 | 108 | 96.3 | 52.5 | 28.8 | 16.8 | 90.2 | 95.3 | 95.1 | 103 | 117 | 109 | 92.2 | 51.8 | 23.1 | 19 | 15.3 | 118 | 116 | 130 | 148 | 113 | 118 | 128 | 117 | 74.1 | 74.5 | 57.9
13 | N#CC(=C(/N)Sc1ccccc1N)/C(C#N)=C(\N)Sc1ccccc1N | 95.9 | 101 | 129 | 133 | 116 | 123 | 111 | 113 | 94.1 | 100 | 83 | 116 | 120 | 139 | 151 | 113 | 118 | 111 | 98.2 | 93.2 | 89 | 57.3 |  |  |  |  |  |  |  |  |  |  | 
14 | CC(C)(C)NC(=O)[C@H]1CC[C@H]2[C@@H]3CC[C@H]4NC(=O)\C=C/[C@]4(C)[C@H]3CC[C@]12C | 88.1 | 89.3 | 98.7 | 92 | 95.8 | 94.4 | 101 | 88.3 | 102 | 104 | 101 | 95.4 | 87.6 | 91.7 | 94.2 | 104 | 99.8 | 104 | 115 | 111 | 99.2 | 91.2 | 91.9 | 92.4 | 104 | 95.5 | 97.3 | 90.2 | 91.5 | 99.7 | 94 | 106 | 90.9
15 | OC1=CC=C(C=C1)\C2=C\C(=O)C3=C(O2)C=C(O)C=C3O | 106 | 111 | 115 | 112 | 113 | 108 | 108 | 94.4 | 106 | 113 | 96.3 | 92 | 121 | 119 | 109 | 111 | 108 | 108 | 94.9 | 93.6 | 98 | 64.2 |  |  |  |  |  |  |  |  |  |  | 
16 | Oc1cc(O)cc(/C=C/c2ccc(O)c(O)c2)c1 | 86.5 | 85.8 | 89.6 | 80.1 | 99.9 | 92.7 | 93.3 | 106 | 78.1 | 77.9 | 44.6 | 87.9 | 92.7 | 78.6 | 82.6 | 87.5 | 89.8 | 97.6 | 84.2 | 82.4 | 63.4 | 27.3 | 101 | 102 | 95 | 107 | 101 | 101 | 115 | 92.7 | 85.3 | 67.5 | 14.2

— the supplement of paper PMC11451515
